In article PMC6292453 (Biochemical Journal, 2018):

Target: T1, P450ZoGa (CYP236A2, WP_013995999) (Zobellia galactanivorans, UniProt G0L713)
T1 sequence (G0L713 1-387): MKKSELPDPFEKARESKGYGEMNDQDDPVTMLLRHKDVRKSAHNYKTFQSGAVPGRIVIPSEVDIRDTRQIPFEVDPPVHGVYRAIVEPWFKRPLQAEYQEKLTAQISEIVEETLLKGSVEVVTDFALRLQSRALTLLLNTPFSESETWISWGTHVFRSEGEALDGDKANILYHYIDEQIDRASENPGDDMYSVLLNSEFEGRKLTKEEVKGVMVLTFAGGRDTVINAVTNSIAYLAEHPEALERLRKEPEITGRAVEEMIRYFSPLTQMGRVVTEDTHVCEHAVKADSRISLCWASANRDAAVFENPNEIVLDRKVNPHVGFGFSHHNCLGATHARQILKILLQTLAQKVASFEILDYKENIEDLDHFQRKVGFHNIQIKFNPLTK
Test: crystal structure of soaked complex
Type: binding

Q: With `COC[C@H]1OC(O)[C@H](O)[C@@H](O)[C@H]1O` (stereo partly drawn) [G6Me, 6-O-methyl-D-galactose] as the compound, how does the Kd read?
A: 980 ± 120 µM
